Measurements taken from the kinase profiling compilation of Christmann-Franck et al. (2016).

Key:
Experiment in all cases: KINOMEscan competition binding
Details in all cases: compound 2.0 µM
PIK3CG (human) = PIK3CG (human) (UniProt P48736)
PRKAA1 (human) = PRKAA1 (human) (UniProt Q13131)
[1] = system: FLT3 (human), P36888 [D835Y]
PIP5K1A (human) = PIP5K1A (human) (UniProt Q99755)
AKT3 (human) = AKT3 (human) (UniProt Q9Y243)
CSNK2A1 (human) = CSNK2A1 (human) (UniProt P68400)
GAK (human) = GAK (human) (UniProt O14976)
GAK (human), sequence (O14976 whole entry, looked up): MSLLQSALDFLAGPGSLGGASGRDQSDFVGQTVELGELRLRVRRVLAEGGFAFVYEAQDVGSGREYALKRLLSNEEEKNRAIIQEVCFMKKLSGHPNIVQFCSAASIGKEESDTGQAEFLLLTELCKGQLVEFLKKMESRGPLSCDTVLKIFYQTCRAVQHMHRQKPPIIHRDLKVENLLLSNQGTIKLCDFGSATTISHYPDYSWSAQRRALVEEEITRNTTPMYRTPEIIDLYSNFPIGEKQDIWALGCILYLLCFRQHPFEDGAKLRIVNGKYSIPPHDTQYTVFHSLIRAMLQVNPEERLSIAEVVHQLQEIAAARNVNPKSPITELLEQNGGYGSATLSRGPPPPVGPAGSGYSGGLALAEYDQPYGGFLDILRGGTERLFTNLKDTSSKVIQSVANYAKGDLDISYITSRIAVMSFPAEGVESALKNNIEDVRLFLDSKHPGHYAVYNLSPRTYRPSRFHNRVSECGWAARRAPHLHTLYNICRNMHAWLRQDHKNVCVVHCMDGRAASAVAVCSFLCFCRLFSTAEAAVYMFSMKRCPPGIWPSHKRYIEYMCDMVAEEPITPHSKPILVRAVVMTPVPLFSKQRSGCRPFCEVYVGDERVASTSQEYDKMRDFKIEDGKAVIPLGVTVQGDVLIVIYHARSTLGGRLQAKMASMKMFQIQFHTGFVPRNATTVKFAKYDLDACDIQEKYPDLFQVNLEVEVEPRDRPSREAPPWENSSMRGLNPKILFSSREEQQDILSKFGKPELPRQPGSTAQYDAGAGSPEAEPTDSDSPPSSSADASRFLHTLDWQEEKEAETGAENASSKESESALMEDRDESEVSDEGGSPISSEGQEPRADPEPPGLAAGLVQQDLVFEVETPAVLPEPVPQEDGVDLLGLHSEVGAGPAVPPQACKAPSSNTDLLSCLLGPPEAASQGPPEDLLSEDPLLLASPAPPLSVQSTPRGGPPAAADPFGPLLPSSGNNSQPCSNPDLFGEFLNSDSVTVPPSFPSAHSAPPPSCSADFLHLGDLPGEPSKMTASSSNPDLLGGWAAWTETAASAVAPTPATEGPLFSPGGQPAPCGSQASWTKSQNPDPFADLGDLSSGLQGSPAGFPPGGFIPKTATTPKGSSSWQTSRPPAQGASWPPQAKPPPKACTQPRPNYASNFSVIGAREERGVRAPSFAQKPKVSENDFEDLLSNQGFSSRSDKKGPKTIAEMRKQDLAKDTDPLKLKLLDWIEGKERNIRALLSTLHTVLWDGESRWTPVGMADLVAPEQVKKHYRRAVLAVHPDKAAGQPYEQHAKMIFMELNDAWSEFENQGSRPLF

[2] = system: LRRK2 (human), Q5S007 [G2019S]
[3] = system: PIK3CA (human), P42336 [E545A]
MARK1 (human) = MARK1 (human) (UniProt Q9P0L2)
MYO3B (human) = MYO3B (human) (UniProt Q8WXR4)
TIE1 (human) = TIE1 (human) (UniProt P35590)
CAMK2D (human) = CAMK2D (human) (UniProt Q13557)
CSK (human) = CSK (human) (UniProt P41240)
CSK (human), sequence (P41240 whole entry, looked up): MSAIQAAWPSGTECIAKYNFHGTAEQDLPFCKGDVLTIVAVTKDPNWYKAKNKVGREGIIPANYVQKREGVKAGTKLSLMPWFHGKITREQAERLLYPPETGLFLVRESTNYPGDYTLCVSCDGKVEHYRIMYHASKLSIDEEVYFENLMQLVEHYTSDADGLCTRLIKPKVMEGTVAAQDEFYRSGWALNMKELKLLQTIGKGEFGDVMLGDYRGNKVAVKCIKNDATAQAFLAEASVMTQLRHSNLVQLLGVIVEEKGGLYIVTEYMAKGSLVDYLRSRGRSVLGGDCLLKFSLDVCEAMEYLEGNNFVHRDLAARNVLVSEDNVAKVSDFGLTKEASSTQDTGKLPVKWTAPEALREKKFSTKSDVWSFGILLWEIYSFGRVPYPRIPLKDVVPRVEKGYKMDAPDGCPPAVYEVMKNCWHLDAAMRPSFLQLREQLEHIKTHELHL

MELK (human) = MELK (human) (UniProt Q14680)
AURKA (human) = AURKA (human) (UniProt O14965)
RPS6KA6 KD2 (human) = RPS6KA6 KD2 (human) (UniProt Q9UK32)
IKBKE (human) = IKBKE (human) (UniProt Q14164)
TESK1 (human) = TESK1 (human) (UniProt Q15569)
TESK1 (human), sequence (Q15569 whole entry, looked up): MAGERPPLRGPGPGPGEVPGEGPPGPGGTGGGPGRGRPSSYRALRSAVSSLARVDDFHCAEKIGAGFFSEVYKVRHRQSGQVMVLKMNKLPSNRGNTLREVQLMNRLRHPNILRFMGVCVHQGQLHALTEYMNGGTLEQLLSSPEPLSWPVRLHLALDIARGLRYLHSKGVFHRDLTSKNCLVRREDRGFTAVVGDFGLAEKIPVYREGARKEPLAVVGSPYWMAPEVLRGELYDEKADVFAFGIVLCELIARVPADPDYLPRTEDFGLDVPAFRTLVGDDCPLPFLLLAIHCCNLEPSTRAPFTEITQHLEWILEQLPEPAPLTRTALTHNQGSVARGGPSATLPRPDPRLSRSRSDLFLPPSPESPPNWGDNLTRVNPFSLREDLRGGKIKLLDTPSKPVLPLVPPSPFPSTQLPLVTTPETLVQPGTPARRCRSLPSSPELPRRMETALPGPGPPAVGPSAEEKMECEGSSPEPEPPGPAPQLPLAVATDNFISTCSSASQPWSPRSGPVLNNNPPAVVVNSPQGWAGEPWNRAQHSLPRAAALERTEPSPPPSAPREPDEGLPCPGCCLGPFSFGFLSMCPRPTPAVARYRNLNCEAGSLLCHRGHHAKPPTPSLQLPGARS

[4] = system: ABL1 (human), P00519 [M351T]
FGFR3 (human) = FGFR3 (human) (UniProt P22607)
CAMK2A (human) = CAMK2A (human) (UniProt Q9UQM7)
ROCK1 (human) = ROCK1 (human) (UniProt Q13464)
BMPR1A (human) = BMPR1A (human) (UniProt P36894)
NEK4 (human) = NEK4 (human) (UniProt P51957)
CDC42BPB (human) = CDC42BPB (human) (UniProt Q9Y5S2)
TBK1 (human) = TBK1 (human) (UniProt Q9UHD2)
STK25 (human) = STK25 (human) (UniProt O00506)
PHKG2 (human) = PHKG2 (human) (UniProt P15735)
DYRK2 (human) = DYRK2 (human) (UniProt Q92630)
ACVR2B (human) = ACVR2B (human) (UniProt Q13705)
ACVR2B (human), sequence (Q13705 whole entry, looked up): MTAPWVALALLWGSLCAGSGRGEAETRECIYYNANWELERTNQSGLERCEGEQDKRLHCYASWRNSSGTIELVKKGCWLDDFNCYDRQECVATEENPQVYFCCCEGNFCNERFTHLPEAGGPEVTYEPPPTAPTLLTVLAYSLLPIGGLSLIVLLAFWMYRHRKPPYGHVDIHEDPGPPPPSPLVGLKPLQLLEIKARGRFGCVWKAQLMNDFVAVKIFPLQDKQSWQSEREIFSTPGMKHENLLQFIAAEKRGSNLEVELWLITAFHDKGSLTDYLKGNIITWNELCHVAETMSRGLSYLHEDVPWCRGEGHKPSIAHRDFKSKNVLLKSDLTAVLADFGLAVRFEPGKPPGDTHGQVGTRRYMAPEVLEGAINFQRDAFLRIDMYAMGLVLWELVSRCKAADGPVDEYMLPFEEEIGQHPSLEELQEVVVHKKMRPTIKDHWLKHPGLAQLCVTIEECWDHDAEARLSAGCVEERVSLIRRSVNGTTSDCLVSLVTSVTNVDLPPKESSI

ULK2 (human) = ULK2 (human) (UniProt Q8IYT8)
STK3 (human) = STK3 (human) (UniProt Q13188)
[5] = target: JAK1 JH2 pseudokinase (human) (UniProt P23458)
ITK (human) = ITK (human) (UniProt Q08881)
ITK (human), sequence (Q08881 whole entry, looked up): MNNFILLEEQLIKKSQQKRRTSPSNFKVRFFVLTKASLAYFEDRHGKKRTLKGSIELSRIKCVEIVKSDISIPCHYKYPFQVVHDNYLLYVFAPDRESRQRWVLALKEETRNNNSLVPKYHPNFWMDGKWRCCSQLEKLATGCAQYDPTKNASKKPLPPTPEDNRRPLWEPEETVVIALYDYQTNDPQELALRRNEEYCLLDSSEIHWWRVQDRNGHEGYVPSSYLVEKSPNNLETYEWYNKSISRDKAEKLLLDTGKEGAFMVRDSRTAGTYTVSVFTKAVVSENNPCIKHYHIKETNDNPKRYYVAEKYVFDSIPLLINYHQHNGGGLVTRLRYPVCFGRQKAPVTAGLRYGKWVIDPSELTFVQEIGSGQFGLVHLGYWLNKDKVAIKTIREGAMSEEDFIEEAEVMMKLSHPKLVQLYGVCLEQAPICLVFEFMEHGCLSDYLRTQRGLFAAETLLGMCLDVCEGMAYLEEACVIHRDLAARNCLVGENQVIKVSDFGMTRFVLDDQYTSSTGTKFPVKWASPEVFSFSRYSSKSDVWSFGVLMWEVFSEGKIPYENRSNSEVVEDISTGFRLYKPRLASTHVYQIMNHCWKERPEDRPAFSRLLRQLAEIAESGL

TGFBR1 (human) = TGFBR1 (human) (UniProt P36897)
PRKCH (human) = PRKCH (human) (UniProt P24723)
DMPK (human) = DMPK (human) (UniProt Q09013)
MAPK15 (human) = MAPK15 (human) (UniProt Q8TD08)
TSSK1B (human) = TSSK1B (human) (UniProt Q9BXA7)
TSSK1B (human), sequence (Q9BXA7 whole entry, looked up): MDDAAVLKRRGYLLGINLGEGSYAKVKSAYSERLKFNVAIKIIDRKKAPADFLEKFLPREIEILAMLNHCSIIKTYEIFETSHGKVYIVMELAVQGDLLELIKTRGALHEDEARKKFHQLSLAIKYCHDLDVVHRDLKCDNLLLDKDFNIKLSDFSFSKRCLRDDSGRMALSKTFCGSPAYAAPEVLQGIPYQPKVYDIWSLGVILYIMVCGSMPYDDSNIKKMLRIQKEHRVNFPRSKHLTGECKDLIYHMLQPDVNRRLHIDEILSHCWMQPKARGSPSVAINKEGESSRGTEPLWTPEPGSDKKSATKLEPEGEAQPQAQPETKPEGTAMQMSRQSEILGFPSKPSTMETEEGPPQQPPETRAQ

TNK2 (human) = TNK2 (human) (UniProt Q07912)
[6] = system: PIK3CA (human), P42336 [Q546K]

PRKAA1 (human), sequence (Q13131 whole entry, looked up): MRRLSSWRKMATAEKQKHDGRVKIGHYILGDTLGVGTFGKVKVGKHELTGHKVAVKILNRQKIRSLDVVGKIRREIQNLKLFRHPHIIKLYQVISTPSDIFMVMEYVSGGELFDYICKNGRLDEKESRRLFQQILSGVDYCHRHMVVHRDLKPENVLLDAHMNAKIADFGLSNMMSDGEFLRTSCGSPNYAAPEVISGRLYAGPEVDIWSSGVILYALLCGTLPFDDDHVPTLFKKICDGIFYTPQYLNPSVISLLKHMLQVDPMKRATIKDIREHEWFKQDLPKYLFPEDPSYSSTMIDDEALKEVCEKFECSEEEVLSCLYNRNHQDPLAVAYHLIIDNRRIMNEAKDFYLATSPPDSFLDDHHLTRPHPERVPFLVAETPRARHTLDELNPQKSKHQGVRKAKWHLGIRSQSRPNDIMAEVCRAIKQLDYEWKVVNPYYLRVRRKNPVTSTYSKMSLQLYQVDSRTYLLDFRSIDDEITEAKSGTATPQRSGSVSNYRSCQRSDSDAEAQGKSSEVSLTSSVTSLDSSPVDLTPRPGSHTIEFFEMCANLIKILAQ
CSNK2A1 (human), sequence (P68400 whole entry, looked up): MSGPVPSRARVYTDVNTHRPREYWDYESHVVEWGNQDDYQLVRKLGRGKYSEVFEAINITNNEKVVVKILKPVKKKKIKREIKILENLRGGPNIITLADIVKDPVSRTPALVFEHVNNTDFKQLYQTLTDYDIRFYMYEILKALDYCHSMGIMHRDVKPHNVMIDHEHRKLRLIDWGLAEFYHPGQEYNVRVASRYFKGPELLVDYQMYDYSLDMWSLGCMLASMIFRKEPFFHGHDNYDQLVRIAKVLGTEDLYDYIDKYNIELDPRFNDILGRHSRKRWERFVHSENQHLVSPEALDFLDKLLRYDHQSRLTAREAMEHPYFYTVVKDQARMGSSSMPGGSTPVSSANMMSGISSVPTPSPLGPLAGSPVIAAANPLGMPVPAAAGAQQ

N#Cc1ccc2ncnc(NCCc3ccc4ccccc4c3)c2c1
kinase still bound, per cent of control (PIK3CG (human)): 68% | kinase still bound, per cent of control (PRKAA1 (human)): 89% | kinase still bound, per cent of control [1]: 94% | kinase still bound, per cent of control (PIP5K1A (human)): 100% | kinase still bound, per cent of control (AKT3 (human)): 98% | kinase still bound, per cent of control (CSNK2A1 (human)): 92% | kinase still bound, per cent of control (GAK (human)): 100% | kinase still bound, per cent of control [2]: 100% | kinase still bound, per cent of control [3]: 92% | kinase still bound, per cent of control (MARK1 (human)): 83% | kinase still bound, per cent of control (MYO3B (human)): 96% | kinase still bound, per cent of control (TIE1 (human)): 90% | kinase still bound, per cent of control (CAMK2D (human)): 100% | kinase still bound, per cent of control (CSK (human)): 100% | kinase still bound, per cent of control (MELK (human)): 84% | kinase still bound, per cent of control (AURKA (human)): 94% | kinase still bound, per cent of control (RPS6KA6 KD2 (human)): 86% | kinase still bound, per cent of control (IKBKE (human)): 100% | kinase still bound, per cent of control (TESK1 (human)): 100% | kinase still bound, per cent of control [4]: 100% | kinase still bound, per cent of control (FGFR3 (human)): 100% | kinase still bound, per cent of control (CAMK2A (human)): 99% | kinase still bound, per cent of control (ROCK1 (human)): 100% | kinase still bound, per cent of control (BMPR1A (human)): 100% | kinase still bound, per cent of control (NEK4 (human)): 100% | kinase still bound, per cent of control (CDC42BPB (human)): 100% | kinase still bound, per cent of control (TBK1 (human)): 100% | kinase still bound, per cent of control (STK25 (human)): 100% | kinase still bound, per cent of control (PHKG2 (human)): 100% | kinase still bound, per cent of control (DYRK2 (human)): 85% | kinase still bound, per cent of control (ACVR2B (human)): 89% | kinase still bound, per cent of control (ULK2 (human)): 100% | kinase still bound, per cent of control (STK3 (human)): 74% | kinase still bound, per cent of control [5]: 100% | kinase still bound, per cent of control (ITK (human)): 80% | kinase still bound, per cent of control (TGFBR1 (human)): 100% | kinase still bound, per cent of control (PRKCH (human)): 100% | kinase still bound, per cent of control (DMPK (human)): 100% | kinase still bound, per cent of control (MAPK15 (human)): 84% | kinase still bound, per cent of control (TSSK1B (human)): 100% | kinase still bound, per cent of control (TNK2 (human)): 97% | kinase still bound, per cent of control [6]: 85%
